Experimental data reported in patent US20060135773A1, “Trisubstituted nitrogen modulators of tyrosine phosphatases” (priority 2004, published 2006).

Target: T1, PTP-1B (Homo sapiens, UniProt P18031)
T1 construct: PTP-1B (purified, 1 mg/mL) as a 1:250 dilution
T1 sequence (P18031 1-321 limits assumed): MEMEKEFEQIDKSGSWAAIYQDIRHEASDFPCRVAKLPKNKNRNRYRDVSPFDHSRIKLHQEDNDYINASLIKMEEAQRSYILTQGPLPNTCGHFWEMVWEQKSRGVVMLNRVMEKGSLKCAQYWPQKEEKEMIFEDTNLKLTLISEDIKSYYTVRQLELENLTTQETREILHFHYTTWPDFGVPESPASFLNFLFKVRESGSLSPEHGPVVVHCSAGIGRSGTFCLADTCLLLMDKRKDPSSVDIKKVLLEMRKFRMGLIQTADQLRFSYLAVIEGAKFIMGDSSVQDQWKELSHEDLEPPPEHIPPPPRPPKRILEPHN
Assay: pNPP tyrosine phosphatase inhibition assay, PTP-1B
Type: biochemical
Details: pNPP assay, PTP-1B; read-out: Activity Class (IC50 ranges)
Outline: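 Test compounds were screened at two final levels, 31.3 and 10 µM, against 4 µg/mL purified PTP-1B. The substrate was 10 mM p-nitrophenyl phosphate, with incubation for 10 min at 30°C before a K2CO3 quench. Activity was taken from A405.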

Row | Compound | IC50 [nM]
1 | COc1ccccc1S(=O)(=O)N(Cc1ccc(C(=NO)C(=O)O)cc1)Cc1ccc(S(C)(=O)=O)cc1 [Compound 126, Hydroxyimino-(4-{[(4-methanesulfonyl-benzyl)-(2-methoxy-benzenesulfonyl)-amino]-methyl}-phenyl)-acetic acid] | > 25000
2 | {[4-(difluorophosphonomethyl)-3-chlorophenyl]methyl}[(2-ethoxyphenyl)methyl][(2-methoxyphenyl)sulfonyl]amine [Compound 212] | 250 to 499
3 | COc1ccccc1S(=O)(=O)N(Cc1ccc(Cl)c(Cl)c1)Cc1ccc(NC(=O)C(=O)O)c(C(=O)O)c1 [Compound 56, 5-{[(3,4-Dichloro-benzyl)-(2-methoxy-benzenesulfonyl)-amino]-methyl}-2-(oxalyl-amino)-benzoic acid] | > 25000
4 | CCNc1ccc(S(=O)(=O)C(F)(F)F)cc1NC(=O)c1ccc(C)c(S(=O)(=O)N2CCCCC2)c1 [Compound 106, N-(2-Ethylamino-5-trifluoromethanesulfonyl-phenyl)-4-methyl-3-(piperidine-1-sulfonyl)-benzamide] | > 25000
5 | COc1ccccc1S(=O)(=O)N(Cc1ccc(C#N)cc1)Cc1ccc(NC(=O)C(=O)O)c(C(=O)O)c1 [Compound 133] | > 25000
6 | COc1ccccc1S(=O)(=O)N(Cc1ccc(C#N)cc1)Cc1ccc(N(S(=O)(=O)C(F)(F)F)S(=O)(=O)C(F)(F)F)cc1 [Compound 112, N-(4-[bis(N-trifluoro-methanesulfonyl)amino]benzyl)-N-(4-cyanobenzyl)-(2-methoxy)benzenesulfonamide] | > 25000
7 | COc1ccccc1S(=O)(=O)N(Cc1ccc(C#N)cc1)Cc1ccc(Nc2c(O)c(=O)c2=O)cc1 [Compound 135, N-(4-Cyano-benzyl)-N-[4-(2-hydroxy-3,4-dioxo-cyclobut-1-enylamino)-benzyl]-2-methoxy-benzenesulfonamide] | > 25000
8 | COc1ccc(S(=O)(=O)N(Cc2ccc(C(F)(F)P(=O)(O)O)cc2)Cc2ccc(C(F)(F)P(=O)(O)O)cc2)cc1 [Compound 89, [(4-{[[4-(Difluoro-phosphono-methyl)-benzyl]-(4-methoxy-benzenesulfonyl)-amino]-methyl}-phenyl)-difluoro-methyl]-phosphonic acid] | 250 to 499
9 | O=C(NS(=O)(=O)C(F)(F)F)c1ccc(CN(Cc2ccc(Cl)c(Cl)c2)S(=O)(=O)c2ccccc2Cl)cc1Br [Compound 95, N-(3-Bromo-4-trifluoromethanesulfonylaminocarbonyl-benzyl)-2-chloro-N-(3,4-dichloro-benzyl)-benzenesulfonamide] | > 25000
10 | O=P(O)(O)C(F)(F)c1ccc(CN(Cc2ccc(C(F)(F)P(=O)(O)O)cc2)S(=O)(=O)c2cccc(Cl)c2Cl)cc1 [Compound 91, {[4-({(2,3-Dichloro-benzenesulfonyl)-[4-(difluoro-phosphono-methyl)-benzyl]-amino}-methyl)-phenyl]-difluoro-methyl}-phosphonic acid] | 2500 to 25000
11 | O=S(=O)(c1ccccc1Cl)N(Cc1ccc(NS(=O)(=O)C(F)(F)F)cc1)Cc1ccc(Cl)c(Cl)c1 [Compound 87, 2-Chloro-N-(3,4-dichloro-benzyl)-N-(4-trifluoromethanesulfonylamino-benzyl)-benzenesulfonamide] | > 25000
12 | 2-(3-{4-[({[4-(difluorophosphonomethyl)-3-chlorophenyl]methyl}[(2-methoxyphenyl)sulfonyl]amino)methyl]phenyl}phenyl)acetic acid [Compound 193] | < 99

Now from value to compound:

Row | IC50 [nM] | Compound
13 | 250 to 499 | COc1ccccc1S(=O)(=O)N(Cc1ccc(C(F)(F)P(=O)(O)O)c(Cl)c1)Cc1ccccc1N1CCCCC1 [Compound 208, [(2-Chloro-4-{[(2-methoxy-benzenesulfonyl)-(2-piperidin-1-yl-benzyl)-amino]-methyl}-phenyl)-difluoro-methyl]-phosphonic acid]
14 | 100 to 249 | COc1ccccc1S(=O)(=O)N(Cc1ccc(-c2ccc(Cc3nn[nH]n3)cc2)cc1)Cc1ccc(C(F)(F)P(=O)(O)O)c(Cl)c1 [Compound 153, {[2-Chloro-4-({(2-methoxy-benzenesulfonyl)-[4′-(2H-tetrazol-5-ylmethyl)-biphenyl-4-ylmethyl]-amino}-methyl)-phenyl]-difluoro-methyl}-phosphonic acid]
15 | 100 to 249 | COc1ccccc1S(=O)(=O)N(Cc1ccc(C(F)(F)P(=O)(O)O)c(Cl)c1)Cc1ccccc1Br [Compound 178, [(4-{[(2-Bromo-benzyl)-(2-methoxy-benzenesulfonyl)-amino]-methyl}-2-chloro-phenyl)-difluoro-methyl]-phosphonic acid]
16 | 250 to 499 | O=C(O)c1ccc(CN(Cc2ccc(C(F)(F)P(=O)(O)O)c(Cl)c2)S(=O)(=O)c2ccccc2)cc1 [Compound 235, 4-({Benzenesulfonyl-[3-chloro-4-(difluoro-phosphono-methyl)-benzyl]-amino}-methyl)-benzoic acid]
17 | 250 to 499 | N#Cc1ccccc1S(=O)(=O)N(Cc1ccc(Cl)c(Cl)c1)Cc1ccc(C(F)(F)P(=O)(O)O)c(Br)c1 [Compound 97, [(2-Bromo-4-{[(3,4-dichloro-benzyl)-(2-cyanobenzenesulfonyl)-amino]-methyl}-phenyl)-difluoro-methyl]-phosphonic acid]
18 | > 25000 | COc1ccccc1S(=O)(=O)N(Cc1ccc(-c2nn[nH]n2)cc1)Cc1ccc(-c2nn[nH]n2)cc1 [Compound 110, 2-Methoxy-N,N-bis-[4-(2H-tetrazol-5-yl)-benzyl]-benzenesulfonamide]
19 | 100 to 249 | COc1ccccc1S(=O)(=O)N(Cc1ccc(C(F)(F)P(=O)(O)O)c(Cl)c1)Cc1ccccc1-c1cccnc1 [Compound 179, [(2-Chloro-4-{[(2-methoxy-benzenesulfonyl)-(2-pyridin-3-yl-benzyl)-amino]-methyl}-phenyl)-difluoro-methyl]-phosphonic acid]
20 | < 99 | O=C(O)c1ccc(CN(Cc2ccc(C(F)(F)P(=O)(O)O)c(Br)c2)S(=O)(=O)c2ccccc2Cl)cc1 [Compound 107, 4-{[[3-Bromo-4-(difluoro-phosphono-methyl)-benzyl]-(2-chloro-benzenesulfonyl)-amino]-methyl}-benzoic acid]
21 | > 25000 | COc1ccccc1S(=O)(=O)N(Cc1ccc(-c2cccc(C#N)c2)cc1)Cc1ccc(C(F)(F)P(=O)(OCOC(=O)C(C)(C)C)OCOC(=O)C(C)(C)C)c(Cl)c1 [Compound 226, 2,2-Dimethyl-propionic acid [(2-chloro-4-{[(3′-cyano-biphenyl-4-ylmethyl)-(2-methoxy-benzenesulfonyl)-amino]-methyl}-phenyl)-difluoro-methyl]-(2,2-dimethyl-propionyloxymethoxy)-phosphinoyloxymethyl ester]
22 | 100 to 249 | CS(=O)(=O)c1ccc(CN(Cc2ccc(C(F)(F)P(=O)(O)O)c(Br)c2)S(=O)(=O)c2ccccc2Cl)cc1 [Compound 102, [(2-Bromo-4-{[(2-chloro-benzenesulfonyl)-(4-methanesulfonyl-benzyl)-amino]-methyl}-phenyl)-difluoro-methyl]-phosphonic acid]
23 | 250 to 499 | COc1ccccc1S(=O)(=O)N(Cc1ccc(OCc2ccccc2)cc1)Cc1ccc(C(F)(F)P(=O)(O)O)c(Cl)c1 [Compound 172, [(4-{[(4-Benzyloxy-benzyl)-(2-methoxy-benzenesulfonyl)-amino]-methyl}-2-chloro-phenyl)-difluoro-methyl]-phosphonic acid]
24 | 250 to 499 | N#Cc1cccc(-c2ccc(CN(Cc3ccc(C(F)(F)P(=O)(O)O)c(Cl)c3)S(=O)(=O)c3ccc4ccccc4c3)cc2)c1 [Compound 154, [(2-Chloro-4-{[(3′-cyano-biphenyl-4-ylmethyl)-(naphthalene-2-sulfonyl)-amino]-methyl}-phenyl)-difluoro-methyl]-phosphonic acid]
25 | 100 to 249 | COc1ccccc1S(=O)(=O)N(Cc1ccc(C(F)(F)P(=O)(O)O)c(Cl)c1)Cc1ccccc1-c1cccc(O)c1 [Compound 184, [(2-Chloro-4-{[(3′-hydroxy-biphenyl-2-ylmethyl)-(2-methoxy-benzenesulfonyl)-amino]-methyl}-phenyl)-difluoro-methyl]-phosphonic acid]
26 | 100 to 249 | N#Cc1cccc(-c2ccc(CN(Cc3ccc(C(F)(F)P(=O)(O)O)c(Cl)c3)S(=O)(=O)c3ccc(F)cc3Cl)cc2)c1 [Compound 162, [(2-Chloro-4-{[(2-chloro-4-fluoro-benzenesulfonyl)-(3′-cyano-biphenyl-4-ylmethyl)-amino]-methyl}-phenyl)-difluoro-methyl]-phosphonic acid]
27 | 250 to 499 | COc1ccccc1S(=O)(=O)N(Cc1ccc(-c2ccc(S(C)(=O)=O)cc2)c(C)c1)Cc1ccc(C(F)(F)P(=O)(O)O)c(Cl)c1 [Compound 151, [(2-Chloro-4-{[(4′-methanesulfonyl-2-methyl-biphenyl-4-ylmethyl)-(2-methoxy-benzenesulfonyl)-amino]-methyl}-phenyl)-difluoro-methyl]-phosphonic acid]
28 | 250 to 499 | O=P(O)(O)C(F)(F)c1ccc(CN(Cc2ccc(Cl)c(Cl)c2)S(=O)(=O)c2ccccc2)cc1Br [Compound 68, [(4-{[Benzenesulfonyl-(3,4-dichloro-benzyl)-amino]-methyl}-2-bromo-phenyl)-difluoro-methyl]-phosphonic acid]
29 | < 99 | COc1cccc(-c2ccccc2CN(Cc2ccc(C(F)(F)P(=O)(O)O)c(Cl)c2)S(=O)(=O)c2ccccc2OC)c1 [Compound 183, [(2-Chloro-4-{[(2-methoxy-benzenesulfonyl)-(3′-methoxy-biphenyl-2-ylmethyl)-amino]-methyl}-phenyl)-difluoro-methyl]-phosphonic acid]
